From ChEMBL document CHEMBL5370528, “Synthesis-accessibility-oriented design of c-Jun N-terminal kinase 1 inhibitor” (Eur J Med Chem, 2023)
Calls of active or inactive are those of the source. The calls are words filed in the database; no cut-off is given here.

Tests used:
Homo sapiens = organism: Homo sapiens; assay: Selectivity ratio of IC50 for inhibition of N-terminal GST-tagged recombinant full length human JNK2 expressed in baculovirus infected Sf9 cells to IC50 for inhibition of N-terminal GST-tagged recombinant full length human JNK1 expressed in baculovirus infected Sf9 insect cells
Mus musculus [1] = assay: Anti-fibrotic activity in bleomycin-induced C57BL/6 mouse model of pulmonary fibrosis assessed as enhancement of lung respiratory function at 25 to 75 mg/kg, po administered twice a day for 3 weeks by spirometry analysis; type: functional, organism-based; conditions: dose 25-75 mg/kg
Mus musculus [2] = assay: Anti-fibrotic activity in bleomycin-induced C57BL/6 mouse model of pulmonary fibrosis assessed as increase in respiratory function by measuring expiratory volume at 25 to 75 mg/kg, po administered twice a day for 3 weeks by spirometry analysis; type: functional, organism-based; conditions: dose 25-75 mg/kg
Mus musculus [3] = assay: Anti-fibrotic activity in bleomycin-induced C57BL/6 mouse model of pulmonary fibrosis assessed as alleviation of neutrophil infiltration in lungs at 25 to 75 mg/kg, po administered twice a day for 3 weeks by H&E staining based analysis; type: functional, organism-based; conditions: dose 25-75 mg/kg

## CC(C)(C)CNc1ncc(Br)c(Nc2ccccc2C(N)=O)n1
Homo sapiens
  Ratio IC50: 3.36
Mus musculus [1]
  Activity: Active
Mus musculus [2]
  Activity: Active
Mus musculus [3]
  Activity: Active
